Reference: the supplement of paper PMC11208160

Test: recombinant barcode read abundance after kanamycin selection (control-corrected) (log10(CPM+1)); higher = more efficient recombination; sequences stand for … in AGTGCAGAGAAAATCGGCCAGTTTTCTCTGCCTGCAGTCCGCATGCCGT…AGATTTATGCAGCGGACTGCCTTTCTCCCAAAGTGATAAACCGGACAGTATCATGGACCGGTTTTCCCGGTAATCCGTATTTGCAAGGTTGGTTTCACT; site = the 11-nt target
How it was run: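 Recombination efficiency draws on barcodes counted at recombinant junctions in a pooled E. coli screen of targets paired with IS621 bridge RNA target-binding loops. The counts were converted to counts per million, averaged and corrected against the chloramphenicol/ampicillin LB agar control, then reported as log10(CPM+1). Selection plates held chloramphenicol/ampicillin/kanamycin with 0.1 mM IPTG, with two replicates per condition.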
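Note: IS621 recombinase and bridge RNA in Escherichia coli cells.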

Sequence | recombinant barcode read abundance (log10)
CAGACTTCTTGGGTTCTAACCTGTTGCCT (site CCGACTTCTAG) | 0.375
CAGACTTCTTGGGTTCTAACCTGTTGCCT (site CGGACTTCTAG) | 0.039
CAGACTTCTTGGGTTCTAACCTGTTGCCT (site CTGACTTCTAG) | 0.0642
CAGAGCCCTTGGGTTCTAACCTGTTGCTG (site CAGAGCCCTCA) | 1.84
CAGAGCCCTTGGGTTCTAACCTGTTGCTG (site CTGAGCCCTCA) | 0.0157
CAGAGGCCTTGGGTTCTAACCTGTTGCCT (site CAGAGGCCTAG) | 0.224
CAGAGGCCTTGGGTTCTAACCTGTTGCCT (site CAGCGGCCTAG) | 0.376
CAGAGGCCTTGGGTTCTAACCTGTTGCCT (site CAGGGGCCTAG) | 0.149
CAGAGGCCTTGGGTTCTAACCTGTTGCCT (site CAGTGGCCTAG) | 0
CAGAGGTCTTGGGTTCTAACCTGTTGCCT (site CAGAGCTCTAG) | 0
CAGAGGTCTTGGGTTCTAACCTGTTGCCT (site CAGAGGTCTAG) | 1.39
CAGCAAGCTTGGGTTCTAACCTGTTGCCT (site CAGCAAGCTAG) | 1.17
CAGCAAGCTTGGGTTCTAACCTGTTGCCT (site CAGTACGCTAG) | 0.0513
CAGCACTCTTGGGTTCTAACCTGTTGCTA (site CAGCACTCTTA) | 2.12
CAGCACTCTTGGGTTCTAACCTGTTGCTA (site CAGGACTCTAA) | 0.201
CAGCATACTTGGGTTCTAACCTGTTGCCT (site CAGCATACTAG) | 1.74
CAGCATACTTGGGTTCTAACCTGTTGCCT (site CCGCATACTAG) | 0.159
CAGCATACTTGGGTTCTAACCTGTTGCCT (site CGGCATACTAG) | 0.215
CAGCATACTTGGGTTCTAACCTGTTGCCT (site CTGCATACTAG) | 0.0255
CAGCCCTCTTGGGTTCTAACCTGTTGCTA (site CAGCCCTCTTA) | 2.75
CAGCCCTCTTGGGTTCTAACCTGTTGCTA (site CCGCCCTCTAA) | 0.188
CAGCCTTCTTGGGTTCTAACCTGTTGCTT (site CAGCCTTCTAA) | 0.718
CAGCCTTCTTGGGTTCTAACCTGTTGCTT (site CATCCTCCTAA) | 0.0417
CAGCGTGCTTGGGTTCTAACCTGTTGCCT (site CAGCGTGCTAG) | 0.838
CAGCGTGCTTGGGTTCTAACCTGTTGCCT (site CCGCGTGCTAG) | 0.318
CAGCGTGCTTGGGTTCTAACCTGTTGCCT (site CGGCGTGCTAG) | 0.216

Sequence | recombinant barcode read abundance (log10)
CAGCGTGCTTGGGTTCTAACCTGTTGCCT (site CTGCGTGCTAG) | 0.612
CAGGAACCTTGGGTTCTAACCTGTTGCCT (site AAGGAACCTAG) | 0.15
CAGGAACCTTGGGTTCTAACCTGTTGCCT (site CAGGAACCTAG) | 2.01
CAGGAACCTTGGGTTCTAACCTGTTGCCT (site GAGGAACCTAG) | 0.235
CAGGAACCTTGGGTTCTAACCTGTTGCCT (site TAGGAACCTAG) | 0.216
CAGGCCACTTGGGTTCTAACCTGTTGCCT (site CAGGCCACTAG) | 0.945
CAGGCCACTTGGGTTCTAACCTGTTGCCT (site CCGGCCACTAG) | 0.0473
CAGGCCACTTGGGTTCTAACCTGTTGCCT (site CGGGCCACTAG) | 1.04
CAGGCCACTTGGGTTCTAACCTGTTGCCT (site CTGGCCACTAG) | 0.357
CAGTACTCTTGGGTTCTAACCTGTTGCCT (site CAGTAATCTAG) | 0.122
CAGTACTCTTGGGTTCTAACCTGTTGCCT (site CAGTACTCTAG) | 2.29
CAGTACTCTTGGGTTCTAACCTGTTGCCT (site CAGTAGTCTAG) | 0.1
CAGTACTCTTGGGTTCTAACCTGTTGCCT (site CAGTATTCTAG) | 0.0289
CAGTGGCCTTGGGTTCTAACCTGTTGCCT (site CAGAGGCCTAG) | 0.0837
CAGTGGCCTTGGGTTCTAACCTGTTGCCT (site CAGCGGCCTAG) | 0.124
CAGTGGCCTTGGGTTCTAACCTGTTGCCT (site CAGGGGCCTAG) | 0.234
CAGTGGCCTTGGGTTCTAACCTGTTGCCT (site CAGTGGCCTAG) | 0.132
CAGTTCGCTTGGGTTCTAACCTGTTGCCT (site CAGTTAGCTAG) | 0.141
CAGTTCGCTTGGGTTCTAACCTGTTGCCT (site CAGTTCGCTAG) | 1.6
CAGTTCGCTTGGGTTCTAACCTGTTGCCT (site CAGTTGGCTAG) | 0.0461
CAGTTCGCTTGGGTTCTAACCTGTTGCCT (site CAGTTTGCTAG) | 0.0585
CAGTTTGCTTGGGTTCTAACCTGTTGCCT (site CAGTTAGCTAG) | 0.102
CAGTTTGCTTGGGTTCTAACCTGTTGCCT (site CAGTTCGCTAG) | 0.172
CAGTTTGCTTGGGTTCTAACCTGTTGCCT (site CAGTTGGCTAG) | 0
CAGTTTGCTTGGGTTCTAACCTGTTGCCT (site CAGTTTGCTAG) | 0.512
CATAACGCTTGGGTTCTAACCTGTTGCCT (site CATAACGCTAG) | 1.18

Sequence | recombinant barcode read abundance (log10)
CATAACGCTTGGGTTCTAACCTGTTGCCT (site GCATCTACTTA) | 0.102
CATAGAGCTTGGGTTCTAACCTGTTGCCT (site CATAGAGCTAG) | 0.648
CATAGAGCTTGGGTTCTAACCTGTTGCCT (site CATAGGGCTCG) | 0.215
CATAGGGCTTGGGTTCTAACCTGTTGCCG (site CATAGAGCTAG) | 0.0324
CATAGGGCTTGGGTTCTAACCTGTTGCCG (site CATAGGGCTCG) | 1.03
CATAGTCCTTGGGTTCTAACCTGTTGCCA (site CATAGTCCTTG) | 0.299
CATAGTCCTTGGGTTCTAACCTGTTGCCA (site GTACAATCTCT) | 0.112
CATCAGCCTTGGGTTCTAACCTGTTGCGT (site CATCAGCCTAC) | 1.63
CATCAGCCTTGGGTTCTAACCTGTTGCGT (site TATCAGCCTAA) | 0.174
CATCCATCTTGGGTTCTAACCTGTTGCAT (site CATCCATCTAT) | 0.883
CATCCATCTTGGGTTCTAACCTGTTGCAT (site TCGAGGCCTTA) | 0.328
CATCCTCCTTGGGTTCTAACCTGTTGCTT (site CAGCCTTCTAA) | 0.103
CATCCTCCTTGGGTTCTAACCTGTTGCTT (site CATCCTCCTAA) | 0.0487
CATCGATCTTGGGTTCTAACCTGTTGCGT (site CATCGATCTAC) | 1.6
CATCGATCTTGGGTTCTAACCTGTTGCGT (site CTTTGATCTAC) | 0.0816
CATCGGACTTGGGTTCTAACCTGTTGCGA (site AGGGCACCTCT) | 0.112
CATCGGACTTGGGTTCTAACCTGTTGCGA (site CATCGGACTTC) | 1.35
CATGAGACTTGGGTTCTAACCTGTTGCGG (site CATGAGACTCC) | 2.18
CATGAGACTTGGGTTCTAACCTGTTGCGG (site GCGATCCCTAA) | 0.0802
CATGAGCCTTGGGTTCTAACCTGTTGCCT (site CATAAGCCTAG) | 0.694
CATGAGCCTTGGGTTCTAACCTGTTGCCT (site CATCAGCCTAG) | 0.0278
CATGAGCCTTGGGTTCTAACCTGTTGCCT (site CATGAGCCTAG) | 2.23
CATGAGCCTTGGGTTCTAACCTGTTGCCT (site CATTAGCCTAG) | 0.196
CATGATTCTTGGGTTCTAACCTGTTGCCT (site CATAATTCTAG) | 0.0239
CATGATTCTTGGGTTCTAACCTGTTGCCT (site CATCATTCTAG) | 0.087
